Values after ≈ are worked out from the molar mass of the structure shown.
System: not given
Assay: not given
Conditions: not given

Row | SMILES | melting point
1 | C[C@]1(COC(=O)N2CCCc3cc(Cl)ccc32)Cn2cc([N+](=O)[O-])nc2O1 | 172 to 174 °C
2 | CC1(COc2ccc(OC(F)(F)F)cc2)Cn2cc([N+](=O)[O-])nc2O1 (stereo not shown) | 126.8 to 127.9 °C
3 | C[C@]1(COc2ccc(-n3ccnc3)cc2)Cn2cc([N+](=O)[O-])nc2O1 | 172 to 175 °C
4 | CCOC(=O)C1CCN(c2ccc(OC[C@@]3(C)Cn4cc([N+](=O)[O-])nc4O3)cc2)CC1 | 208.2 to 211.5 °C
5 | O=C(Nc1ccc(N2CCOCC2)c(F)c1)N1CCC2(CC1)Cn1cc([N+](=O)[O-])nc1O2 | 240 to 245 °C (dec.)
6 | CC(C)(C)OC(=O)N1CCC(c2ccc(OC[C@@]3(C)Cn4cc([N+](=O)[O-])nc4O3)cc2)CC1 | 227.5 to 228.3 °C (dec.)
7 | C[C@]1(CN2CCN(C3CCN(c4ccc(OC(F)(F)F)cc4)CC3)CC2)Cn2cc([N+](=O)[O-])nc2O1 | 180 to 181.5 °C
8 | C[C@]1(CN2CCC(N3CCN(C(=O)c4ccc(OC(F)(F)F)cc4)CC3)CC2)Cn2cc([N+](=O)[O-])nc2O1 | 137 to 138 °C
9 | C[C@]1(CN2CCN(C3CCN(Cc4ccc(OC(F)(F)F)cc4)CC3)CC2)Cn2cc([N+](=O)[O-])nc2O1 | 140 to 141 °C
10 | C[C@]1(COc2ccc(N3CCN(Cc4ccc(C(F)(F)F)cc4)CC3)cc2)Cn2cc([N+](=O)[O-])nc2O1 | 205.5 to 207 °C
11 | C[C@]1(COc2ccc(C(=O)N3CCN(C(=O)OCc4ccc(OC(F)(F)F)cc4)CC3)cc2)Cn2cc([N+](=O)[O-])nc2O1 | 168.5 to 172 °C
12 | C[C@]1(COc2ccc(N3CCN(Cc4ccc(OC(F)(F)F)cc4)CC3)cc2)Cn2cc([N+](=O)[O-])nc2O1 | 213.5 to 217 °C
13 | CC1(CNC(=O)OCc2ccc(OC(F)(F)F)cc2)Cn2cc([N+](=O)[O-])nc2O1 (stereo not shown) | 182.3 to 184.4 °C
14 | CNC(C1CCN(c2ccc(OC(F)(F)F)cc2)CC1)[C@]1(C)Cn2cc([N+](=O)[O-])nc2O1 (stereo partly shown) | 127.2 to 129.7 °C
15 | CNC(C1CCN(c2ccc(C(F)(F)F)cc2)CC1)[C@]1(C)Cn2cc([N+](=O)[O-])nc2O1 (stereo partly shown) | 131.5 to 133.6 °C
16 | CC1(CN2CCC(Oc3ccc(C(F)(F)F)cc3)CC2)Cn2cc([N+](=O)[O-])nc2O1 (stereo not shown) | 113 to 114 °C
17 | CC1(CN2CCC(C(=O)c3ccc(C(F)(F)F)cc3)CC2)Cn2cc([N+](=O)[O-])nc2O1 (stereo not shown) | 172 to 174 °C
18 | CC1(N2CCC(C(=O)c3ccc(OC(F)(F)F)cc3)CC2)Cn2cc([N+](=O)[O-])nc2O1 (stereo not shown) | 165 to 167 °C
19 | CC(C)(C)OC(=O)N(CCc1ccc(C(F)(F)F)cc1)C1CCN(C[C@@]2(C)Cn3cc([N+](=O)[O-])nc3O2)CC1 | 206.8 to 208.6 °C
20 | C[C@]1(CN2CCC(OCC=Cc3ccccc3)CC2)Cn2cc([N+](=O)[O-])nc2O1 | 91.3 to 92.7 °C
21 | C[C@]1(CN2CCC(NC(=O)OC3CCN(c4ccc(C(F)(F)F)cc4)CC3)CC2)Cn2cc([N+](=O)[O-])nc2O1 | 134.4 to 136.9 °C
22 | C[C@]1(CN2CCC(NC(=O)Nc3ccc(C(F)(F)F)cc3)CC2)Cn2cc([N+](=O)[O-])nc2O1 | 136.8 to 139.9 °C
23 | C[C@]1(CN2CCC(NCCc3ccc(C(F)(F)F)cc3)CC2)Cn2cc([N+](=O)[O-])nc2O1 | 80.7 to 84.2 °C
24 | CC1(CN2CCN(C(=O)OCc3ccccc3)CC2)Cn2cc([N+](=O)[O-])nc2O1 (stereo not shown) | 130.5 to 132.1 °C
25 | CC1(CN2CCN(C(=O)Oc3ccccc3)CC2)Cn2cc([N+](=O)[O-])nc2O1 (stereo not shown) | 81 to 85 °C

Row | SMILES | melting point
26 | CC1(CCCN2CCN(c3nc4ccccc4o3)CC2)Cn2cc([N+](=O)[O-])nc2O1 (stereo not shown) | 172 to 174.4 °C
27 | C[C@]1(CN2CCN(c3ccc(Cl)cc3)CC2)Cn2cc([N+](=O)[O-])nc2O1 | 218 to 219.6 °C
28 | C[C@]1(CN2CCN(C(=O)OCC=Cc3ccc(C(F)(F)F)cc3)CC2)Cn2cc([N+](=O)[O-])nc2O1 | 132 to 133 °C
29 | CC1(CN2CCN(C(=O)CCc3ccccc3)CC2)Cn2cc([N+](=O)[O-])nc2O1 (stereo not shown) | 166.8 to 169.1 °C
30 | CN(C)c1ccc(C(=O)N2CCN(CC3(C)Cn4cc([N+](=O)[O-])nc4O3)CC2)cc1 (stereo not shown) | 204 to 207 °C
31 | CN1C(=O)CCc2cc(COC(=O)N3CCN(C[C@@]4(C)Cn5cc([N+](=O)[O-])nc5O4)CC3)ccc21 | 189 to 190 °C
32 | CC1(COc2nc3ccccc3o2)Cn2cc([N+](=O)[O-])nc2O1 (stereo not shown) | 200 to 203 °C
33 | C[C@]1(CN2CCN(C(=O)OCC=Cc3cccc(C(F)(F)F)c3)CC2)Cn2cc([N+](=O)[O-])nc2O1.O=C(O)/C=C\C(=O)O | 136 to 138 °C
34 | C[C@]1(CN2CCN(C(=O)NCc3ccc(C(F)(F)F)cc3)CC2)Cn2cc([N+](=O)[O-])nc2O1 | 101 to 103.6 °C
35 | CC1(CSc2nc3ccccc3o2)Cn2cc([N+](=O)[O-])nc2O1 (stereo not shown) | 163 to 166 °C
36 | C[C@]1(CN2CCN(C(=O)N3CCC(c4ccc(C(F)(F)F)cc4)CC3)CC2)Cn2cc([N+](=O)[O-])nc2O1 | 179.1 to 181.9 °C
37 | C[C@]1(CN2CCN(C(=O)N3C=CC(c4ccc(Cl)cc4)=CC3)CC2)Cn2cc([N+](=O)[O-])nc2O1 | 156 to 159 °C
38 | C[C@]1(CN2CCN(Nc3ccc(C(F)(F)F)cc3)CC2)Cn2cc([N+](=O)[O-])nc2O1 | 192.1 to 195.3 °C
39 | CC1(CSc2nnnn2-c2ccccc2)Cn2cc([N+](=O)[O-])nc2O1 (stereo not shown) | 140 to 147 °C
40 | Cn1c(=O)n(CC2(C)Cn3cc([N+](=O)[O-])nc3O2)c2cc(Cl)ccc21 (stereo not shown) | 261.9 to 265.4 °C (dec.)
41 | CC1(CN2CCN(Cc3ccccc3)C2=O)Cn2cc([N+](=O)[O-])nc2O1 (stereo not shown) | 180.2 to 180.9 °C
42 | COc1ccc(CN2CCN(CC3(C)Cn4cc([N+](=O)[O-])nc4O3)C2=O)cc1 (stereo not shown) | 158.6 to 160.5 °C
43 | O=[N+]([O-])c1cn2c(n1)OC1(CCN(c3ccc(C(F)(F)F)cc3)CC1)C2 | 249.2 to 250.1 °C
44 | O=C(N1CCN(Cc2ccc(C(F)(F)F)cc2)CC1)N1CCC2(CC1)Cn1cc([N+](=O)[O-])nc1O2 | 226 to 230 °C (dec.)
45 | O=C(NCc1ccc(C(F)(F)F)cc1)N1CCC2(CC1)Cn1cc([N+](=O)[O-])nc1O2 | 215 to 217 °C
46 | C[C@]1(COC(=O)N(c2ccc(Cl)cc2)C2CCCCC2)Cn2cc([N+](=O)[O-])nc2O1 | 175 to 177 °C
47 | CN(C(=O)OC[C@@]1(C)Cn2cc([N+](=O)[O-])nc2O1)c1ccc(OC(F)(F)F)cc1 | 144 to 145 °C
48 | CC1(COC(=O)N2CCN(c3ccc(OC(F)(F)F)cc3)CC2)Cn2cc([N+](=O)[O-])nc2O1 (stereo not shown) | 138 to 140 °C
49 | C[C@]1(CN2CCN(N=Cc3ccc(C(F)(F)F)cc3)CC2)Cn2cc([N+](=O)[O-])nc2O1 [Example 504] | 201 to 202.3 °C (dec.)
50 | C[C@]1(CN2CCN(N=Cc3ccc(C(F)(F)F)cc3)CC2)Cn2cc([N+](=O)[O-])nc2O1 [Example 505] | 188.4 to 191.2 °C

System: Mycobacterium tuberculosis (H37Rv strain)
Assay: not given
Conditions: cited from earlier work

Row | SMILES | bactericidal action
51 | CCC1Cn2cc([N+](=O)[O-])nc2O1 (stereo not shown) [CGI-17341] | has a bactericidal action

System: M. intracellulare
Assay: not given
Conditions: used at 250 μg/ml or less; cited from earlier work

Row | SMILES | activity
52 | CCC1Cn2cc([N+](=O)[O-])nc2O1 (stereo not shown) [CGI-17341] | does not have the activity

System: M. avium
Assay: not given
Conditions: used at 250 μg/ml or less; cited from earlier work

Row | SMILES | activity
53 | CCC1Cn2cc([N+](=O)[O-])nc2O1 (stereo not shown) [CGI-17341] | does not have the activity

System: Mycobacterium tuberculosis (M. tuberculosis H37Rv)
Assay: Antimicrobial assay (agar dilution method), minimal inhibitory concentration
Format: cell-based
Conditions: 336 h, 7H11 agar medium, approximately 10^6 CFU/ml, 5 μl inoculated, 37° C. for 14 days

Row | SMILES | MIC
54 | C[C@]1(CN2CCN(c3ccc(OC(F)(F)F)cc3)CC2)Cn2cc([N+](=O)[O-])nc2O1 [Example 397, (S)-2-[4-(4-trifluoromethoxyphenyl)-piperazin-1-ylmethyl]-2-methyl-6-nitro-2,3-dihydroimidazo[2,1-b]oxazole] | 0.024 µg/mL (≈ 0.0562 µM)

System: M. fortuitum
Assay: not given
Conditions: used at 250 μg/ml or less; cited from earlier work

Row | SMILES | activity
55 | CCC1Cn2cc([N+](=O)[O-])nc2O1 (stereo not shown) [CGI-17341] | does not have the activity

From patent US7262212B2, “2,3-dihydro-6-nitroimidazo[2,1-b]oxazoles” (Otsuka Pharmaceutical Co., Ltd., priority 2002, dated 2007)
